Values quoted from earlier work, collected in patent US7682606B2, “Methods of producing edible fungi containing activated folates and nutritional supplements containing activated folates” (Jarrow Formulas, Inc., priority 2003, dated 2010).

Tests used:
[1] = test system: homocysteine; settings: human
[2] = animal

| SMILES | Reducing homocysteine, compared with racemic D,L mixtures [1] | Intestinal absorption after oral administration [2] |
| --- | --- | --- |
| CN1c2c(nc(N)[nH]c2=O)NCC1CNc1ccc(C(=O)N[C@@H](CCC(=O)O)C(=O)O)cc1 (single isomer, unassigned) [L-isomer of 5-MTHF, 5-methyltetrahydrofolate] | superior to racemic mixtures |  |
| CN1c2c(nc(N)[nH]c2=O)NCC1CNc1ccc(C(=O)N[C@@H](CCC(=O)O)C(=O)O)cc1 (some centres unmarked) [5-MTHF, 5-methyltetrahydrofolate] |  | readily absorbed from the intestinal tract without degradation |
